From EP0041615A1, “Use of imidazolyl-vinyl ketones and alcohols as antimicrobial agents” (BAYER AG, priority 1980, dated 1981)

Columns and labels:
Candida-Zellen = assay: Antimycotic in-vivo activity (oral) in mouse candidosis; set-up: species or system Mäuse vom Typ SPF-CF1; settings: 50-100 mg/kg each 1 h before and 7 h after i.v. infection, untreated controls about 5 % survival on day 6 p.i.
Experimental: Antimykotische in-vivo-Wirksamkeit (oral) bei Mäuse-Candidose
Mäuse vom Typ SPF-CF1 wurden intravenös mit 1-2 x 10^6 logarithmisch wachsenden Candida-Zellen, die in physiologischer Kochsalzlösung suspendiert waren, infiziert. Eine Stunde vor und sieben Stunden nach der Infektion werden die Tiere mit jeweils 50-100 mg/kg Körpergewicht der Präparate oral behandelt.
Unbehandelte Tiere starben 3 bis 6 Tage post infektionem. Die Ueberlebensrate am 6.Tag post infektionem betrug bei unbehandelten Kontrolltieren etwa 5 %.

[1] = test system: Dermatophyten und Schimmelpilze; Hefen; assay: Antimycotic in-vitro activity, serial dilution test; type: cell-based; settings: inoculum 5 x 10^4 germs/ml, 28°C, 24 h (yeasts) or 96 h (dermatophytes, moulds), stated relative to prior-art compound (A)
Experimental: Antimykotische in-vitro-Wirksamkeit
Die in-vitro-Wirksamkeit im Reihenverdünnungstest wird mit Keiminokula von durchschnittlich 5 x 10^4 Keimen /ml Substant durchgeführt. Als Nährmedium dienten: • a) für Dermatophyten und Schimmelpilze: Sabouraud's milieu d'epreuve • b) für Hefen: Isotonic Sensitest-Broth von Oxid.
Die Bebrütungstemperatur berug 28°C; Bebrütungsdauer war 24 Stunden bei Hefen und 96 Stunden bei Dermatophyten und Schimmelpilzen.

[2] = test system: Trichophyton mentagrophytes; assay: Antimicrobial in-vivo activity (local), experimental guinea pig trichophytosis model; set-up: species or system Meerschweinchen der Rasse Pirbright-white; settings: once daily from day 3 p.i., 1 % solution in dimethyl sulfoxide:glycerol 1:4, result means only slight reddening and isolated scales
From the text: Antimikrobielle in-vivo-Wirksamkeit (lokal) am Modell der experimetellen Meerschweinchen-Trichophytie
Weiße Meerschweinchen der Rasse Pirbright-white wurden auf dem geschorenen, nicht skarifizierten Rücken mit einer Mikro- und Makrokonidien-Suspension von Trichophyton mentagrophytes infiziert. Die infizierten Tiere wurden, beginnend am 3.Tag p.i., lx täglich mit 1%-iger Lösung der erfindungsgemäßen Präparate (in Dimethylsulfoxid:Glycerin=1:4) lokal behandelt.
Bei unbehandelten Tieren entwickelt sich innerhalb von 12 Tagen p.i. das typische Bild einer Dermatophytose mit Rötung, Schuppung und Haarausfall bis zum totalen Integument-Defekt an der Infektionsstelle.

SMILES | Wirkung (Mäuse-Candidose) (Candida-Zellen) | antimykotische Wirkung [1] | Wirkung (Meerschweinchen-Trichophytie) [2]
CC(C)(C)C(O)C(=Cc1ccc(Cl)cc1)n1ccnc1 (stereo not shown) [(B), reference compound] | keine Wirkung |  | 
CCCCCCCC=C(C(=O)C(C)(C)C)n1ccnc1 [Beispiel 1] |  | bessere antimykotische Wirkung | Wirkung bis gute Wirkung
CCCCCCCC=C(C(O)C(C)(C)C)n1ccnc1 (stereo not shown) [Beispiel 2] |  | bessere antimykotische Wirkung | Wirkung bis gute Wirkung
CC(C)C=C(C(=O)C(C)(C)C)n1ccnc1 [Beispiel 5] | gute bis sehr gute Wirkung | bessere antimykotische Wirkung | 
CC(C)(C)C=C(C(=O)C(C)(C)C)n1ccnc1 [Beispiel 7] | gute bis sehr gute Wirkung | bessere antimykotische Wirkung | 
CCC(C)C=C(C(=O)C(C)(C)C)n1ccnc1 (stereo not shown) [Beispiel 8] | gute bis sehr gute Wirkung | bessere antimykotische Wirkung | Wirkung bis gute Wirkung
CC(C)(C)C(=O)C(=CC1CCCC1)n1ccnc1 [Beispiel 10] |  | bessere antimykotische Wirkung | 
CC=C(C(O)C(C)(C)C)n1ccnc1 (stereo not shown) [Beispiel 25] | gute bis sehr gute Wirkung |  | 
CCC(C)C=C(C(O)C(C)(C)C)n1ccnc1 (stereo not shown) [Beispiel 27] |  |  | Wirkung bis gute Wirkung
CC(C)(C)C(O)C(=CC1CCCC1)n1ccnc1 (stereo not shown) [Beispiel 28] |  | bessere antimykotische Wirkung | 
CC(C)(C)C(O)C(=CC1c2ccccc2-c2ccccc21)n1ccnc1 (stereo not shown) [Beispiel 32] |  | bessere antimykotische Wirkung | 
CC(C)(C)C(O)C(=CC1CCCCC1)n1ccnc1 (stereo not shown) [Beispiel 37] |  | bessere antimykotische Wirkung | 
CC(C)(C)C(=O)C(=Cc1ccccc1Cl)n1ccnc1 [Verbindung (A), reference compound] | keine Wirkung |  | 
